Patent US20050239656A1, “Pyridine compounds or salts thereof and herbicides containing the same” (priority 2002, published 2005)

How the values were obtained:
velvetleaf = test: Test Example 2: soil surface treatment, upland pot test; assay type: in vivo, Abutilon theophrasti MEDIC.; details: active ingredient 500 g/ha, observed 20th to 28th day
Description: (§1) Upland field soil was put into a 1/170,000 ha pot, and seed of various plants (barnyardgrass, crabgrass, green foxtail, redroot pigweed, prickly sida, velvetleaf, rice, wheat, corn, soybean) were sown. On the 1st day after the sowing, a wettable powder or emulsifiable concentrate having the compound of the present invention formulated in accordance with a usual formulation method, was weighed so that the active ingredient would be a predetermined amount, and diluted with water in an amount of 1,500 L/ha. The herbicide thus adjusted was applied by a small size sprayer for soil surface treatment. On the 20th to 28th days after the application of the herbicide, the growth of the respective plants was visually observed, and the herbicidal effects were evaluated by the growth controlling degrees (%) ranging from 0 (equivalent to the non-treated plot) to 100 (complete kill), whereby the results shown in Table 4, were obtained.

prickly sida = test: as above; assay type: in vivo, Sida spinosa L.; details: active ingredient 500 g/ha, observed 20th to 28th day
Description: as §1

barnyardgrass [1] = test: as above; assay type: in vivo, Echinochloa crus-galli L.; details: active ingredient 500 g/ha, observed 20th to 28th day
Description: as §1

crabgrass = test: as above; assay type: in vivo, Digitaria sanguinalis L.; details: active ingredient 500 g/ha, observed 20th to 28th day
Description: as §1

soybean = test: as above; assay type: in vivo, Glycine max Merr.; details: active ingredient 500 g/ha, observed 20th to 28th day
Description: as §1

redroot pigweed = test: as above; assay type: in vivo, Amaranthus retroflexus L.; details: active ingredient 500 g/ha, observed 20th to 28th day
Description: as §1

corn = test: as above; assay type: in vivo, Zea mays L.; details: active ingredient 500 g/ha, observed 20th to 28th day
Description: as §1

rice = test: as above; assay type: in vivo, Oryza sativa L.; details: active ingredient 500 g/ha, observed 20th to 28th day
Description: as §1

green foxtail = test: as above; assay type: in vivo, Setaria viridis L.; details: active ingredient 500 g/ha, observed 20th to 28th day
Description: as §1

japanese bulrush = test: Test Example 3: paddy pot test, application under submerged conditions; assay type: in vivo, Scirpus juncoides; details: submerged application at 0.5 leaf stage, visually observed 14 days after application, 0 = non-treated, 100 = complete kill
Description: (§2) Paddy field soil was put into a 1/1,000,000 ha pot, and seed of barnyardgrass and japanese bulrush were sown and slightly covered with soil. Then, the pot was left to stand still in a greenhouse in a state where the depth of flooding water was from 0.5 to 1 cm, and one day or two days later, tubers of japanese ribbon wapato were planted. Thereafter, the depth of flooding water was maintained at a level of from 3 to 4 cm, and when barnyardgrass and japanese bulrush reached a 0.5 leaf stage and japanese ribbon wapato reached a primary leaf stage, an aqueous diluted solution of a wettable powder or emulsifiable concentrate having the compound of the present invention formulated in accordance with a usual formulation method, was uniformly applied under submerged conditions by a pipette so that the dose of the active ingredient would be at a predetermined level. On the 14 days after the application of the herbicide, the growth of barnyard grass, japanese burlrush and japanese ribbon wapato was visually observed and on the 21st day after the application of the herbicide, the growth of rice was visually observed, and the herbicidal effects were evaluated by the growth-controlling degrees (%) ranging from 0 (equivalent to the non-treated plot) to 100 (complete kill), whereby the results shown in Table 5 were obtained.

rice (var. Nihonbare) = test: Test Example 3: paddy pot test, transplanted rice; assay type: in vivo, Oryza sativa L.; details: applied 4th day after transplantation, visually observed 21st day after application, 0 = non-treated, 100 = complete kill
Description: as §2, with “On the other hand, paddy field soil was put into a 1/1,000,000 ha pot and puddled and leveled, and the depth of flooding water was from 3 to 4 cm. Next day, rice (var. Nihonbare) of 2 leaf stage was transplanted in a depth of 3 cm. On the 4th day after the transplantation, the compound of the present invention was applied in the same manner as described above. On the 14 days” for “On the 14 days”

barnyardgrass [2] = test: Test Example 3: paddy pot test, application under submerged conditions; assay type: in vivo, Echinochloa crus-galli L.; details: submerged application at 0.5 leaf stage, visually observed 14 days after application, 0 = non-treated, 100 = complete kill
Description: as §2

japanese ribbon wapato = test: as above; assay type: in vivo, Sagittaria pygniaea; details: submerged application at primary leaf stage, visually observed 14 days after application, 0 = non-treated, 100 = complete kill
Description: as §2

Row | SMILES | Growth controlling degree (%) Velvetleaf (velvetleaf) [%] | Growth controlling degree (%) Prickly sida (prickly sida) [%] | Growth controlling degree (%) Barnyardgrass (barnyardgrass [1]) [%] | Growth controlling degree (%) Crabgrass (crabgrass) [%] | Growth controlling degree (%) Soyabean (soybean) [%] | Growth controlling degree (%) Redroot pigweed (redroot pigweed) [%] | Growth controlling degree (%) Corn (corn) [%] | Growth controlling degree (%) Rice (rice) [%] | Growth controlling degree (%) Green foxtail (green foxtail) [%] | Growth controlling degree (%) Japanese bulrush (japanese bulrush; active ingredient 250 g/ha) [%] | Growth controlling degree (%) Rice (rice (var. Nihonbare); active ingredient 250 g/ha) [%] | Growth controlling degree (%) Barnyardgrass (barnyardgrass [2]; active ingredient 250 g/ha) [%] | Growth controlling degree (%) Japanese ribbon wapato (japanese ribbon wapato; active ingredient 250 g/ha) [%] | Growth controlling degree (%) Japanese bulrush (japanese bulrush; active ingredient 500 g/ha) [%] | Growth controlling degree (%) Rice (rice (var. Nihonbare); active ingredient 500 g/ha) [%] | Growth controlling degree (%) Barnyardgrass (barnyardgrass [2]; active ingredient 500 g/ha) [%] | Growth controlling degree (%) Japanese ribbon wapato (japanese ribbon wapato; active ingredient 500 g/ha) [%]
1 | CNC(=S)N(C)C(c1cnccc1C(F)(F)F)C(C)C (racemic) [Compound I-112] | 10 | 40 | 20 | 70 | 10 | 70 | 10 | 40 | 50 |  |  |  |  |  |  |  | 
2 | CC(C)C(c1cnccc1C(F)(F)F)N(C)C(=O)SCc1ccccc1 (racemic) [I-113] | 60 | 60 | 60 | 70 | 10 | 70 | 20 | 30 | 95 | 30 | 0 | 95 |  |  |  |  | 
3 | CC(C)C(c1cnccc1C(F)(F)F)N(C)C(=O)Nc1ccccc1 (stereo not drawn) [Compound I-230] | 0 | 30 | 50 | 98 | 0 | 60 | 40 | 10 | 70 |  |  |  |  |  |  |  | 
4 | CCN(C(=O)Cc1ccc(C)cc1)C(c1cnccc1C(F)(F)F)C(C)C (stereo not drawn) [I-101] | 30 | 30 | 70 |  | 0 | 80 | 10 | 0 | 70 | 98 | 10 | 100 | 40 |  |  |  | 
5 | CC(C)C(c1cnccc1C(F)(F)F)N(C)C(=O)CCl (stereo not drawn) [I-168] | 0 | 70 | 100 | 98 | 20 | 100 | 10 | 98 | 98 |  |  |  |  |  |  |  | 
6 | Cc1ccc(C=CC(=O)N(C)C(c2cnccc2C(F)(F)F)C(C)C)cc1 (stereo not drawn) [I-181] | 30 |  | 30 | 98 | 0 | 40 | 10 | 40 | 95 |  |  |  |  | 98 | 10 | 95 | 60
7 | Cc1cccc(OCC(=O)N(C)C(c2cnccc2C(F)(F)F)C(C)C)c1 (stereo not drawn) [I-238] |  |  |  |  |  |  |  |  |  | 95 | 20 | 95 | 60 |  |  |  | 
8 | Cc1ccccc1OCC(=O)N(C)C(c1cnccc1C(F)(F)F)C(C)C (stereo not drawn) [I-240] |  |  |  |  |  |  |  |  |  | 100 | 0 | 100 | 50 |  |  |  | 
9 | CC(C)C(c1cnccc1C(F)(F)F)N(C)C(=O)COc1cccc(Cl)c1 (stereo not drawn) [I-247] |  |  |  |  |  |  |  |  |  | 95 | 0 | 100 | 0 |  |  |  | 
10 | CC(C)C(c1cnccc1C(F)(F)F)N(C)C(=O)COc1ccc(Cl)cc1 (stereo not drawn) [I-248] |  |  |  |  |  |  |  |  |  | 98 | 0 | 98 | 20 |  |  |  | 
11 | CC(C)C(c1cnccc1C(F)(F)F)N(C)C(=O)COc1c(F)c(F)c(F)c(F)c1F (stereo not drawn) [I-252] |  |  |  |  |  |  |  |  |  | 98 | 0 | 95 | 0 |  |  |  | 
12 | CC(C)C(c1cnccc1C(F)(F)F)N(C)C(=O)COc1cc([N+](=O)[O-])c(Cl)cc1Cl (stereo not drawn) [I-253] |  |  |  |  |  |  |  |  |  | 20 | 10 | 90 | 0 |  |  |  | 
